In paper PMC5403950, “Mechanism Underlying the Reversal of Drug Resistance in P-Glycoprotein-Expressing Leukemia Cells by Pinoresinol and the Study of a Derivative” (Frontiers in Pharmacology, 2017):

Assays:
[1] = test system: K562 cells; test: Doxorubicin intracellular accumulation assay (flow cytometry), K562; assay type: cell-based, human; conditions: up to the maximum concentration evaluated
From the text: […]. […] Viability controls were included in all the experiments.

[2] = test system: Lucena 1 cells; test: Multidrug resistance reversal assay (MTT) with DOX; assay type: cell-based, human
Description: (§1) Briefly, 5 × 10^4 Lucena 1 cells per well were seeded in 96-well plates containing RPMI-1640 medium in the presence of DOX alone or in combination with the tested compounds dissolved in ethanol or acetonitrile as appropriate. DOX was added to reach final concentrations of 0.05–431 μM. The compounds were assayed at the highest non-toxic concentration observed in both cell lines (cytotoxicity ≤ 20%, Cytotoxicity (%) = [1-(Optical density treatment-Optical density DMSO)/(Optical density control-Optical density DMSO)] x 100, determined by MTT proliferation assay (Joray et al., [2015]); maximum concentration tested 40 μg mL^−1). Following the primary screening, compounds 14 and 16 (dissolved in ethanol) were tested at serial dilutions. […] Subsequently, the supernatants were removed and replaced with 100 μL DMSO to solubilize the resulting purple formazan crystals produced from metabolically viable cells. Absorbance was measured with an iMark micro-plate reader (Bio-Rad, USA) at 595 nm.
(§2) The same reversal assay was performed in K562 cells, in order to discard a decrease in the IC50 of DOX due to effects other than P-gp inhibition. The reversal fold (RF) values for the tested compounds, which indicate their capacity to reduce resistance to DOX, were calculated by dividing the IC50 of DOX alone by the IC50 of DOX in the presence of the tested compounds (Xu et al., [2014]).

[3] = test system: K562 cells; test: Multidrug resistance reversal assay (MTT) with DOX, sensitive parental line; assay type: cell-based, human; conditions: compound at 14 μM
Description: as §1, §2

[4] = test system: peripheral blood mononuclear cells (PBMC); test: Cytotoxicity on peripheral blood mononuclear cells (MTT); assay type: cell-based, human; conditions: PHA 10 μg mL−1, 48 h, confidence limits in brackets
Description: (§3) The cytotoxicity of 14 and 16 on peripheral blood mononuclear cells (PBMC) was evaluated by MTT assay (Joray et al., [2015]). PBMC were collected from fresh heparinized blood and separated by density gradient centrifugation (Ficoll®) as described by Rennó et al. ([2008]). As the current study required samples from healthy human volunteer donors, ethical approval was provided by the Catholic University of Córdoba Research Ethics Board. Signed informed consents were obtained from donors. […] Absorbance (Abs) and percentage of cytotoxicity were determined as described above and the IC50 values were calculated. The experiment was carried out in two separate stages.

[5] = as above; assay type: cell-based, human; conditions: human, peripheral blood mononuclear cells (PBMC), PHA 10 μg mL−1, confidence limits in brackets
Description: as §3

[6] = target: T1, P-gp (Homo sapiens, UniProt P08183); test: in vitro; conditions: Lucena 1 cells, probe doxorubicin (DOX) 5 μM
T1 sequence (P08183 whole entry): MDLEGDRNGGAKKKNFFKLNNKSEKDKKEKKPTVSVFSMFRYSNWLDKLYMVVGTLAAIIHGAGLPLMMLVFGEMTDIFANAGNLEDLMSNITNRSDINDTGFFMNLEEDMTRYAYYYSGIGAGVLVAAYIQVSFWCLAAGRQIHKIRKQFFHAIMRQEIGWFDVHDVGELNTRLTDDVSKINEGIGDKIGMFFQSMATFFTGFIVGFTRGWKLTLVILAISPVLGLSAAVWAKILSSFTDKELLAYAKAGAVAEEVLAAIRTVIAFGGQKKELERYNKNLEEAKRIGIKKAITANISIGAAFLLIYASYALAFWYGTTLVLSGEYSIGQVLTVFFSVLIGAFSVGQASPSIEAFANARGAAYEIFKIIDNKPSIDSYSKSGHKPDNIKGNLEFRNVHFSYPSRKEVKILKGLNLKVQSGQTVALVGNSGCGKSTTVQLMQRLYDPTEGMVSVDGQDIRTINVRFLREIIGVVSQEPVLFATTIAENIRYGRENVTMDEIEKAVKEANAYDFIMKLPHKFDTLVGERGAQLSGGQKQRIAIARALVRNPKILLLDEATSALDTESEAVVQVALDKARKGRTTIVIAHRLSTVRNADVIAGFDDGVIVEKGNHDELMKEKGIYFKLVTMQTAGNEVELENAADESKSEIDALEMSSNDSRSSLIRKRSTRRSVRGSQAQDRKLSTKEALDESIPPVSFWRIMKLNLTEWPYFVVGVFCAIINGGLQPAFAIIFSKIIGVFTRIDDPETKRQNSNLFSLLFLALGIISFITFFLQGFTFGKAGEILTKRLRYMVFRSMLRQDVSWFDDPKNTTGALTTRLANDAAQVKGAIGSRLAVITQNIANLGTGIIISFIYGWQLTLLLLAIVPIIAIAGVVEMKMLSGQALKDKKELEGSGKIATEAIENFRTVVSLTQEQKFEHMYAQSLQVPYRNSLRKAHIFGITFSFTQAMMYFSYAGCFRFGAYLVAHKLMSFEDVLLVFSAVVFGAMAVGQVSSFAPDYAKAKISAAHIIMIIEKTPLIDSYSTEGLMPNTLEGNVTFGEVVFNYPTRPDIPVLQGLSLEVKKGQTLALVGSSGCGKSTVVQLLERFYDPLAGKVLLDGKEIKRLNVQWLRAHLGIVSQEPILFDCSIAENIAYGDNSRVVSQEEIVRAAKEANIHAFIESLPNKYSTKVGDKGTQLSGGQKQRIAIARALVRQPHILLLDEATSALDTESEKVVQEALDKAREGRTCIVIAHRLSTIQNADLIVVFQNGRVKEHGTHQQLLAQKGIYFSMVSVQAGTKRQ

[7] = target: T1, P-gp; conditions: Lucena 1; 1 h pre-incubation, 5 μM DOX 1 h

With COc1cc([C@H]2OC[C@]3(OC(C)=O)[C@@H](c4ccc(O)c(OC)c4)OC[C@H]23)ccc1O [Compound 16, 1-acetoxy-(+)-pinoresinol] the “DOX accumulation in K562” value [1] was “no increase in DOX accumulation”, the “Minimum effective concentration (MEC) in the reversal assay (potentiation of DOX toxicity from)” value ([2]; Lucena 1, DOX) was 0.11 µM and the “RF Lucena 1” value ([2]; compound at 0.11 μM, DOX) was 1.4. The “RF Lucena 1” value ([2]; compound at 14 μM, DOX) was 22.7, the “Effectiveness of 16 relative to 14 according to the MECs” value ([2]; reversal and accumulation assays) was 64 times and the “Effect on DOX activity in K562” value [3] was “no potentiation”. The “RF K562” value ([3]; DOX) was 1.05 ± 0.14, the IC50 [4] was 103 µM and the IC50 at 48 h [5] was 103 µM. The activity at 0.87 µM [6] was 62%, the activity at 14 µM [6] was 141% and the “Minimum effective concentration (MEC) in the DOX accumulation assay” value [7] was 0.87 µM.
